Results published in patent US9072698B2, “Method for screening anti-cancer compounds inhibiting function of TM4SF5 and anti-cancer composition containing chalcone compounds” (Seoul National University Industry Foundation, priority 2006, dated 2015).
Converted amounts (≈) assume the structure as drawn.

Experiments:
[1] = system: SNU449Tp cells; test: Immunofluorescent staining for E-cadherin and β-catenin, cell-cell contact (FIG. 45); format: cell-based, human; settings: 20 μM
Description: When cells were transfected with given specific genes or infected with various viruses, they were used after being cultured for a given period of time. Cells treated with 10 mM lysophosphatidic acid (LPA) were used 1 hour after being attached to cover glasses. Immunofluorescent staining was carried out by preparing a slide for fluorescent analysis through incubation with a primary antibody against a target protein, washing out unbound antibody molecules, incubation with a fluorescein-conjugated secondary antibody and washing out unbound antibody molecules, and actin filament staininh was carried out with rhodamine-conjugated phalloidin. Antibodies used included antibodies against E-cadherin, β-catenin, FLAG, 4′-6-diamidino-2-phenylindole (DAPI), 5-brorno-2′-deoxy-uridine (BrdU), p27^kip1, ZO1 (zonula occludens-1), and the like. Immunofluorescent stained cover glasses were placed on slides and observed under a fluorescence microscope or a confocal laser scanning microscope.

[2] = system: PC-3 (prostate adenocarcinoma); test: In vitro cytotoxicity, sulforhodamine B (SRB) method, PC-3; format: cell-based; settings: Homo sapiens; PC-3, SRB method; read-out: cytotoxicity (ED50) PC-3
Outline: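 Cells grown in RPMI 1640 with 10% FCS at 37 °C, 5% CO2 were exposed to compounds at 30, 10, 3, 1 and 0.3 μg/ml final, with DMSO below 0.5%. Cytotoxicity was read by the standard NCI sulforhodamine B protein-staining method.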

`Cc1ccc(S(=O)(=O)Nc2ccc(C(=O)/C=C/c3ccc(O)cc3)cc2)cc1` [Compound 1, 4′-(p-toluenesulfonylamino)-4-hydroxychalcone] was tested, and the cell-cell contact [1] was “restored cell-cell contact” and the IC50 [2] was 37 µg/mL (≈ 94 µM).
